pKd: −log10 of the molar value.
Columns and labels:
[1] = test system: Caco-2 cells; assay: Cholesterol efflux from cultured human Caco-2 cells; format: cell-based; conditions: 10 μg/ml apoA-I, 24 hours, mean of quadruplicate incubations
Method: Caco-2 cells, which are of human origin, were obtained from ATCC and grown in Opti-MEM (Gibco #51985-034) containing 10% FCS, non-essential amino acids (Gibco #11140-050), and vitamins (Gibco # 11120-052). Caco-2 cells were plated at 100,000 cells/well in 48-well plates. After four days the cells had reached confluence, and were then labeled with ^3H-cholesterol by incubation for 24 hours in fresh growth media containing ^3H-cholesterol (10 μCi/mi). Following labeling with ^3H-cholesterol, cells were washed and incubated an additional 24 hours in serum-free media containing 1 mg/ml BSA, to allow for equilibration of ^3H-cholesterol with intracellular cholesterol. Cholesterol efflux was initiated by adding 10 μg/ml apoA-I, with or without compound, in serum-free medium. Compounds were added to cell culture medium from DMSO solutions, and control cells received an equivalent amount of DMSO, never exceeding 0.1%. After 24 hours, media were harvested and cells dissolved in 0.1 M NaOH. Media were briefly centrifuged to remove non-adherent cells, and then aliquots of both the supernatants and the dissolved cells were subjected to liquid scintillation spectrometry to determine radioactivity. Cholesterol efflux is expressed as a percentage, calculated as (^3H-cholesterol in riedium/(^3H-cholesterol in medium+^3H-cholesterol in cells))×100.

[2] = biological target: T1, human LXRα (Homo sapiens, UniProt Q13133); assay: Radioligand competition binding scintillation proximity assay, LXRα
T1 construct: made in house; host or cells: E. coli (pGEX-KT vector)
T1 sequence (Q13133 164-447): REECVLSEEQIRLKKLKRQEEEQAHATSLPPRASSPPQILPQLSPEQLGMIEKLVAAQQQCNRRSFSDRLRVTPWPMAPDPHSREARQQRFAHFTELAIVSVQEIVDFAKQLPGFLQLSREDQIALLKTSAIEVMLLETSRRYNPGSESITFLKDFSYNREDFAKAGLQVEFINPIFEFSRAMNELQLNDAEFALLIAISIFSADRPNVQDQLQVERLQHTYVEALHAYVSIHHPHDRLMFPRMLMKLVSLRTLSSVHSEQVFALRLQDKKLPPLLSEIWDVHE
Description: Radioligand Competition Binding Scintillation Proximity Assays

Row | SMILES | % cholesterol efflux ([1]; compound 30 nM) | % cholesterol efflux ([1]; compound 100 nM) | % cholesterol efflux ([1]; compound 300 nM) | % cholesterol efflux ([1]; compound 1000 nM) | % cholesterol efflux ([1]; compound 3000 nM) | % cholesterol efflux ([1]; compound 10000 nM) | pKd [2]
1 | CCCc1c(OCCCN(C)C(=O)Nc2ccccn2)ccc2c(C(F)(F)F)noc12 [Compound (18), N′-(2-pyridyl)-N-methyl-N-(3-{[7-propyl-3-(trifluoromethyl)-1,2-benzisoxazol-6-yl]oxy}propyl)urea] | 3.4% | 3.5% | 4.9% | 5.7% | 6.8% | 5.6% | 
2 | CCCc1c(OCCCSc2ccc(CC(=O)O)cc2Cl)ccc2c(C(F)(F)F)noc12 [Compound A] |  |  |  |  |  |  | ~7.82

From patent US20050113419A1, “Therapeutic compounds for treating dyslipidemic conditions” (priority 2003, published 2005)
